Laboratory results as given in US9938269B2, “Inhibitor compounds of phosphodiesterase type 10A” (ABBVIE INC., priority 2011, dated 2018).
pIC50: −log10 of the molar value. Counter-ions that a name gives are not always drawn.

How the values were obtained:
[1] = Determination of the microsomal half-life, human liver microsomes; conditions: for microsomal CLint at 0.5 μM: human, liver microsomes, pH 7.4
Protocol: The test substances were incubated in a concentration of 0.5 μM as follows:
0.5 μM test substance are preincubated together with liver microsomes from different species (from rat, human or other species) (0.25 mg of microsomal protein/10 in 0.05 M potassium phosphate buffer of pH 7.4 in microtiter plates at 37° C. for 5 min. The reaction is started by adding NADPH (1 mg/mL). After 0, 5, 10, 15, 20 and 30 min., 50 μl aliquots are removed, and the reaction is immediately stopped and cooled with the same volume of acetonitrile. The samples are frozen until analyzed. The remaining concentration of undegraded test substance is determined by MSMS. The half-life (T½) is determined from the gradient of the signal of test substance/unit time plot, it being possible to calculate the half-life of the test substance, assuming first order kinetics, from the decrease in the concentration of the compound with time. The microsomal clearance (mCl) is calculated from mCl=ln 2/T½/(content of microsomal protein in mg/ml)×1000 [ml/min/mg]

PDE10A (human) = molecular target: T1, PDE10A (human) (Homo sapiens, UniProt Q9Y233); assay: Measurement of PDE activity (HTRF cAMP kit), human PDE10A; type: biochemical; conditions: PDE enzymatic reaction, substrate 20 nM for PDE10, 60 minutes at 29 C
T1 construct: purchased BPS Bioscience
T1 sequence (Q9Y233 whole entry): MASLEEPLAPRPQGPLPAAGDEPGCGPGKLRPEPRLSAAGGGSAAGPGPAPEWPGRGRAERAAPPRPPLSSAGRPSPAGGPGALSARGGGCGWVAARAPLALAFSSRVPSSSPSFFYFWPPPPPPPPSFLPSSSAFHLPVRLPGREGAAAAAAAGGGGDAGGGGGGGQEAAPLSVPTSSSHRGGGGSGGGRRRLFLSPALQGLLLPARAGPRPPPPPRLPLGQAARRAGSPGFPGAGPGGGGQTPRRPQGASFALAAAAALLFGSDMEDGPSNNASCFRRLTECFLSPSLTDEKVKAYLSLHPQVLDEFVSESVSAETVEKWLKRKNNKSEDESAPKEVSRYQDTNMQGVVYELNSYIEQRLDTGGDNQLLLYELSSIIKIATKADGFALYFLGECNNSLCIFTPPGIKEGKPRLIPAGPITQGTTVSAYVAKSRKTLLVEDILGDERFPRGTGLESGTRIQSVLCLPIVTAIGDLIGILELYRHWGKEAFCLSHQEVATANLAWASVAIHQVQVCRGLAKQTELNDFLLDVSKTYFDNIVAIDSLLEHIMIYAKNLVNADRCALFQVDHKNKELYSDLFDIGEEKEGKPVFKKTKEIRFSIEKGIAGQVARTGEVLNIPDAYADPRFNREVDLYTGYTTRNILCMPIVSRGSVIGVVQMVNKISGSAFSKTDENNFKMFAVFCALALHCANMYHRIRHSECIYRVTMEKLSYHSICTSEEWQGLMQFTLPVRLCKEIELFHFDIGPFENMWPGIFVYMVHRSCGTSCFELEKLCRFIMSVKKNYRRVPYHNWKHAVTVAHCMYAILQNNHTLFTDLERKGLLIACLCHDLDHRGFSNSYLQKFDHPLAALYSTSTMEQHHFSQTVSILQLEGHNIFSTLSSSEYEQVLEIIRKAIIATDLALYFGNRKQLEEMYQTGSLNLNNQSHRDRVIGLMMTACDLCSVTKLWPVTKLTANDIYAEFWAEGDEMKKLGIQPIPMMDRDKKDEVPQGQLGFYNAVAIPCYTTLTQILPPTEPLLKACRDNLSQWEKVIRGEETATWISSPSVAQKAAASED
Method in brief: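 HTRF detection of cAMP left after hydrolysis, expressed as percent of uninhibited control to derive IC50. Reaction: serially diluted inhibitor mixed with recombinant enzyme, started with 20 nM cAMP, 60 min at 29 °C in Tris-HCl pH 7.5 buffer containing MgCl2 and BSA.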

[2] = Determination of the microsomal half-life, rat liver microsomes; conditions: for microsomal CLint at 0.5 μM: rat, liver microsomes, pH 7.4

## O=C1c2c(cccc2N2CCOCC2)CN1CCc1ccc2ccccc2n1 [Example 99, 7-Morpholin-4-yl-2-(2-quinolin-2-yl-ethyl)-2,3-dihydro-isoindol-1-one]
[1]
  microsomal CLint at 0.5 μM: 100 to 220 µL/min/mg
PDE10A (human)
  pIC50: > 7.00
[2]
  microsomal CLint at 0.5 μM: < 100 µL/min/mg

## O=C1c2c(cccc2N2C[C@@H]3C[C@H]2CN3)CN1CCc1ccc2ccccc2n1 [Example 101, 7-(1S,4S)-2,5-Diaza-bicyclo[2.2.1]hept-2-yl-2-(2-quinolin-2-yl-ethyl)-2,3-dihydro-isoindol-1-one]
[1]
  microsomal CLint at 0.5 μM: < 100 µL/min/mg
PDE10A (human)
  pIC50: 6.30 to 6.70
[2]
  microsomal CLint at 0.5 μM: > 220 µL/min/mg

## O=C1c2c(cccc2N2CCNCC2)CN1CCc1ccc2ccccc2n1 [Example 102, 7-piperazin-1-yl-2-(2-quinolin-2-yl-ethyl)-2,3-dihydro-isoindol-1-one]
[1]
  microsomal CLint at 0.5 μM: < 100 µL/min/mg
PDE10A (human)
  pIC50: 6.30 to 6.70
[2]
  microsomal CLint at 0.5 μM: 100 to 220 µL/min/mg

## O=C1c2c(cccc2N2CCS(=O)(=O)CC2)CN1CCc1ccc2ccccc2n1 [Example 104, 7-(1,1-Dioxo-1-thiomorpholin-4-yl)-2-(2-quinolin-2-yl-ethyl)-2,3-dihydro-isoindol-1-one]
[1]
  microsomal CLint at 0.5 μM: < 100 µL/min/mg
PDE10A (human)
  pIC50: > 7.00
[2]
  microsomal CLint at 0.5 μM: < 100 µL/min/mg

## O=C1c2c(cccc2N2CCN(c3ccncc3)CC2)CN1CCc1ccc2ccccc2n1 [Example 106, 7-(4-Pyridin-4-yl-piperazin-1-yl)-2-(2-quinolin-2-yl-ethyl)-2,3-dihydro-isoindol-1-one]
[1]
  microsomal CLint at 0.5 μM: 100 to 220 µL/min/mg
PDE10A (human)
  pIC50: 6.30 to 6.70
[2]
  microsomal CLint at 0.5 μM: < 100 µL/min/mg

## CN1CCN(c2cccc3c2C(=O)N(CCc2ccc4ccccc4n2)C3)CC1 [Example 107, 7-(4-Methyl-piperazin-1-yl)-2-(2-quinolin-2-yl-ethyl)-2,3-dihydro-isoindol-1-one]
[1]
  microsomal CLint at 0.5 μM: < 100 µL/min/mg
PDE10A (human)
  pIC50: 6.30 to 6.70
[2]
  microsomal CLint at 0.5 μM: < 100 µL/min/mg

## O=C1c2c(cccc2N2CCCOCC2)CN1CCc1ccc2ccccc2n1 [Example 110, 7-[1,4]Oxazepan-4-yl-2-(2-quinolin-2-yl-ethyl)-2,3-dihydro-isoindol-1-one hydrochloride]
[1]
  microsomal CLint at 0.5 μM: > 220 µL/min/mg
PDE10A (human)
  pIC50: > 7.00
[2]
  microsomal CLint at 0.5 μM: 100 to 220 µL/min/mg

## O=C1c2c(cccc2N2CCOCC2)CN1CCc1ccc2cc(F)ccc2n1 [Example 115, 2-[2-(6-Fluoro-quinolin-2-yl)-ethyl]-7-morpholin-4-yl-2,3-dihydro-isoindol-1-one trifluoroacetate]
[1]
  microsomal CLint at 0.5 μM: 100 to 220 µL/min/mg
PDE10A (human)
  pIC50: > 7.00
[2]
  microsomal CLint at 0.5 μM: < 100 µL/min/mg

## COc1ccc2nc(CCN3Cc4cccc(N5CCOCC5)c4C3=O)ccc2c1 [Example 116, 2-[2-(6-Methoxy-quinolin-2-yl)-ethyl]-7-morpholin-4-yl-2,3-dihydro-isoindol-1-one hydrochloride]
[1]
  microsomal CLint at 0.5 μM: 100 to 220 µL/min/mg
PDE10A (human)
  pIC50: > 7.00
[2]
  microsomal CLint at 0.5 μM: < 100 µL/min/mg

## O=C1c2c(N3CCOCC3)ccnc2CN1CCc1ccc2ccccc2n1 [Example 119, 4-Morpholin-4-yl-6-(2-quinolin-2-yl-ethyl)-6,7-dihydro-pyrrolo[3,4-b]pyridin-5-one]
[1]
  microsomal CLint at 0.5 μM: < 100 µL/min/mg
PDE10A (human)
  pIC50: > 7.00
[2]
  microsomal CLint at 0.5 μM: < 100 µL/min/mg

## O=C1c2c(cccc2N2CCOCC2)CN1CCc1cccc(-c2ncccn2)c1 [Example 120, 7-Morpholino-2-(3-(pyrimidin-2-yl)phenethyl)isoindolin-1-one]
[1]
  microsomal CLint at 0.5 μM: 100 to 220 µL/min/mg
PDE10A (human)
  pIC50: 6.30 to 6.70
[2]
  microsomal CLint at 0.5 μM: 100 to 220 µL/min/mg

## O=C1c2cccc(N3CCOCC3)c2CN1CCc1ccc2ccccc2n1 [Example 130, 4-Morpholin-4-yl-2-(2-quinolin-2-yl-ethyl)-2,3-dihydro-isoindol-1-one; compound with trifluoro-acetic acid]
[1]
  microsomal CLint at 0.5 μM: 100 to 220 µL/min/mg
PDE10A (human)
  pIC50: > 7.00
[2]
  microsomal CLint at 0.5 μM: > 220 µL/min/mg

## O=C1c2cccc(N3CCS(=O)(=O)CC3)c2CN1CCc1ccc2ccccc2n1 [Example 131, 4-(1,1-Dioxo-1-thiomorpholin-4-yl)-2-(2-quinolin-2-yl-ethyl)-2,3-dihydro-isoindol-1-one]
[1]
  microsomal CLint at 0.5 μM: < 100 µL/min/mg
PDE10A (human)
  pIC50: 6.30 to 6.70
[2]
  microsomal CLint at 0.5 μM: < 100 µL/min/mg

## O=C1c2c(cccc2N2CCC3(COC3)C2)CN1CCc1ccc2ccccc2n1 [Example 134, 7-(2-Oxa-6-aza-spiro[3.4]oct-6-yl)-2-(2-quinolin-2-yl-ethyl)-2,3-dihydro-isoindol-1-one]
[1]
  microsomal CLint at 0.5 μM: > 220 µL/min/mg
PDE10A (human)
  pIC50: > 7.00
[2]
  microsomal CLint at 0.5 μM: 100 to 220 µL/min/mg

## O=C1c2c(cccc2N2CC[S+]([O-])CC2)CN1CCc1ccc2ccccc2n1 [Example 135, 7-(1-oxo-thiomorpholin-4-yl)-2-(2-quinolin-2-yl-ethyl)-2,3-dihydro-isoindol-1-one]
[1]
  microsomal CLint at 0.5 μM: < 100 µL/min/mg
PDE10A (human)
  pIC50: > 7.00
[2]
  microsomal CLint at 0.5 μM: < 100 µL/min/mg

## O=C1c2c(N3CCS(=O)(=O)CC3)ccnc2CN1CCc1ccc2ccccc2n1 [Example 137, 4-(1,1-Dioxo-thiomorpholin-4-yl)-6-(2-quinolin-2-yl-ethyl)-6,7-dihydro-pyrrolo[3,4-b]pyridin-5-one]
[1]
  microsomal CLint at 0.5 μM: < 100 µL/min/mg
PDE10A (human)
  pIC50: > 7.00
[2]
  microsomal CLint at 0.5 μM: < 100 µL/min/mg

## CN1CCN(c2ccnc3c2C(=O)N(CCc2ccc4ccccc4n2)C3)CC1 [Example 138, 4-(4-Methyl-piperazin-1-yl)-6-(2-quinolin-2-yl-ethyl)-6,7-dihydro-pyrrolo[3,4-b]pyridin-5-one]
[1]
  microsomal CLint at 0.5 μM: < 100 µL/min/mg
PDE10A (human)
  pIC50: > 7.00
[2]
  microsomal CLint at 0.5 μM: < 100 µL/min/mg

## O=C1c2c(cccc2NC2CNC2)CN1CCc1ccc2ccccc2n1 [Example 145, 7-(Azetidin-3-ylamino)-2-(2-quinolin-2-yl-ethyl)-2,3-dihydro-isoindol-1-one]
[1]
  microsomal CLint at 0.5 μM: < 100 µL/min/mg
PDE10A (human)
  pIC50: 6.30 to 6.70
[2]
  microsomal CLint at 0.5 μM: < 100 µL/min/mg

## Cn1c(CCN2Cc3cccc(N4CCOCC4)c3C2=O)nc2ccccc21 [Example 153, 2-[2-(1-Methyl-1H-benzoimidazol-2-yl)-ethyl]-7-morpholin-4-yl-2,3-dihydro-isoindol-1-one]
[1]
  microsomal CLint at 0.5 μM: < 100 µL/min/mg
PDE10A (human)
  pIC50: > 7.00
[2]
  microsomal CLint at 0.5 μM: < 100 µL/min/mg

## O=C1c2c(-c3cn[nH]c3)ccnc2CN1CCc1ccc2ccccc2n1 [Example 156, 4-(1H-Pyrazol-4-yl)-6-(2-quinolin-2-yl-ethyl)-6,7-dihydro-pyrrolo[3,4-b]pyridin-5-one]
[1]
  microsomal CLint at 0.5 μM: < 100 µL/min/mg
PDE10A (human)
  pIC50: > 7.00
[2]
  microsomal CLint at 0.5 μM: 100 to 220 µL/min/mg

## O=C(O)C(F)(F)F.O=C(O)C(F)(F)F.O=C1c2c(-c3ccc(F)cc3)ccnc2CN1CCc1ccc2ccccc2n1 [Example 160, 4-(4-Fluoro-phenyl)-6-(2-quinolin-2-yl-ethyl)-6,7-dihydro-pyrrolo[3,4-b]pyridin-5-one (di trifluoroacetate)]
[1]; human liver microsomes, 0.5 μM test substance, 0.25 mg microsomal protein, pH 7.4, 37° C., NADPH
  Human mCl (mikrosomal clearance): + (+: 100-220 μl min^−1 mg^−1)
PDE10A (human)
  pIC50: > 7.00
[2]; rat liver microsomes, 0.5 μM test substance, 0.25 mg microsomal protein, pH 7.4, 37° C., NADPH
  Rat mCl (mikrosomal clearance): ∘ (∘ not avialable or >220 μl min^−1 mg^−1)

## COc1ccc(-c2ccnc3c2C(=O)N(CCc2ccc4ccccc4n2)C3)cc1 [Example 161, 4-(4-Methoxy-phenyl)-6-(2-quinolin-2-yl-ethyl)-6,7-dihydro-pyrrolo[3,4-b]pyridin-5-one]
[1]
  microsomal CLint at 0.5 μM: 100 to 220 µL/min/mg
PDE10A (human)
  pIC50: > 7.00
[2]
  microsomal CLint at 0.5 μM: > 220 µL/min/mg

## Cn1nccc1-c1ccnc2c1C(=O)N(CCc1ccc3ccccc3n1)C2 [Example 162, 4-(2-Methyl-2H-pyrazol-3-yl)-6-(2-quinolin-2-yl-ethyl)-6,7-dihydro-pyrrolo[3,4-b]pyridin-5-one hydrochloride]
[1]
  microsomal CLint at 0.5 μM: < 100 µL/min/mg
PDE10A (human)
  pIC50: > 7.00
[2]
  microsomal CLint at 0.5 μM: < 100 µL/min/mg

## O=C1c2c(N3CCNCC3)ccnc2CN1CCc1ccc2ccccc2n1 [Example 163, 4-piperazin-1-yl-6-(2-quinolin-2-yl-ethyl)-6,7-dihydro-pyrrolo[3,4-b]pyridin-5-one]
[1]
  microsomal CLint at 0.5 μM: < 100 µL/min/mg
PDE10A (human)
  pIC50: > 7.00
[2]
  microsomal CLint at 0.5 μM: < 100 µL/min/mg

## O=C1Cc2ccc(-c3ccnc4c3C(=O)N(CCc3ccc5ccccc5n3)C4)cc2N1 [Example 165, 4-(2-oxo-2,3-dihydro-1H-indol-6-yl)-6-(2-quinolin-2-yl-ethyl)-6,7-dihydro-pyrrolo[3,4-b]pyridin-5-one]
[1]
  microsomal CLint at 0.5 μM: < 100 µL/min/mg
PDE10A (human)
  pIC50: > 7.00
[2]
  microsomal CLint at 0.5 μM: < 100 µL/min/mg

## O=C1c2c(-c3cncnc3)ccnc2CN1CCc1ccc2ccccc2n1 [Example 166, 4-Pyrimidin-5-yl-6-(2-quinolin-2-yl-ethyl)-6,7-dihydro-pyrrolo[3,4-b]pyridin-5-one]
[1]
  microsomal CLint at 0.5 μM: < 100 µL/min/mg
PDE10A (human)
  pIC50: > 7.00
[2]
  microsomal CLint at 0.5 μM: < 100 µL/min/mg

## O=C1c2c(cccc2N2CCS(=O)(=O)CC2)CN1CCc1nc2ccccc2[nH]1 [Example 175, 2-[2-(1H-Benzoimidazol-2-yl)-ethyl]-7-(1,1-dioxo-thiomorpholin-4-yl)-2,3-dihydro-isoindol-1-one]
[1]
  microsomal CLint at 0.5 μM: < 100 µL/min/mg
PDE10A (human)
  pIC50: 6.70 to 7.00
[2]
  microsomal CLint at 0.5 μM: < 100 µL/min/mg

## Cc1ncccc1COc1cccc2c1C(=O)N(CCc1ccc3ccccc3n1)C2 [Example 179, 7-(2-Methyl-pyridin-3-ylmethoxy)-2-(2-quinolin-2-yl-ethyl)-2,3-dihydro-isoindol-1-one]
[1]
  microsomal CLint at 0.5 μM: > 220 µL/min/mg
PDE10A (human)
  pIC50: > 7.00
[2]
  microsomal CLint at 0.5 μM: 100 to 220 µL/min/mg

## COc1ccc(-c2cn[nH]c2)c2c1CN(CCc1ccc3ccccc3n1)C2=O [Example 180, 4-Methoxy-7-(1H-pyrazol-4-yl)-2-(2-quinolin-2-yl-ethyl)-2,3-dihydro-isoindol-1-one]
[1]
  microsomal CLint at 0.5 μM: 100 to 220 µL/min/mg
PDE10A (human)
  pIC50: > 7.00
[2]
  microsomal CLint at 0.5 μM: > 220 µL/min/mg

## COc1ccc(-c2cncnc2)c2c1CN(CCc1ccc3ccccc3n1)C2=O [Example 183, 4-Methoxy-7-pyrimidin-5-yl-2-(2-quinolin-2-yl-ethyl)-2,3-dihydro-isoindol-1-one]
[1]
  microsomal CLint at 0.5 μM: 100 to 220 µL/min/mg
PDE10A (human)
  pIC50: > 7.00
[2]
  microsomal CLint at 0.5 μM: 100 to 220 µL/min/mg
